According to ChEMBL document CHEMBL6074689 (Eur J Med Chem, 2025):
The source made the active and inactive calls. No cut-off for these calls is given here.

Experiments:
[1] = molecular target: T1, Acetylcholinesterase (Homo sapiens, UniProt P22303); experiment: Inhibition of human recombinant AChE expressed in HEK293 cells using acetylthiocholine iodide as substrate preincubated with compound for 30 mins followed by substrate addition and measured after 30 mins by DTNB reagent based Ellman's method
[2] = molecular target: Cholinesterase (Equus caballus, UniProt P81908); experiment: Inhibition of equine serum BChE using acetylthiocholine iodide as substrate preincubated with compound for 30 mins followed by substrate addition and measured after 30 mins by DTNB reagent based Ellman's method
[3] = molecular target: T1, Acetylcholinesterase; experiment: Displacement of propidium iodide from human AChE PAS assessed as reduction in fluorescence intensity at 5 uM incubated for 6 hrs by fluorescence based analysis relative to control; parameters: scale not given: the % may be the effect or the level left
[4] = system: Mus musculus; experiment: Antioxidant activity against scopolamine-induced Swiss albino mouse model assessed as increase in SOD level at 3 mg/kg, po by absorbance based analysis; format: functional, organism-based
[5] = Toxicity in Drosophila melanogaster Oregon R-positive assessed as reduction in eclosed flies at 200 uM measured for 15 days relative to control; parameters: scale not given: the % may be the effect or the level left; conditions: 360 h, time 15 day
[6] = system: Mus musculus; experiment: Antialzheimer activity in scopolamine-induced Swiss albino mouse model assessed as reduction in BChE level at 3 mg/kg, po preincubated with compound for 30 mins followed by scopolamine induction and measured after 30 mins; format: functional, organism-based; conditions: time 1.0 hrs
[7] = system: Drosophila melanogaster; experiment: Anti-alzheimer activity in ey-GAL4 driven UAS-amyloid beta (1 to 42) induced Drosophila melanogaster Oregon R-positive assessed as mild eye phenotype at 50 uM by Stereo zoom microscopic imaging analysis relative to control; format: functional
[8] = molecular target: T1, Acetylcholinesterase; experiment: Displacement of propidium iodide from human AChE PAS assessed as reduction in fluorescence intensity at 0.1 uM incubated for 6 hrs by fluorescence based analysis relative to control; parameters: scale not given: the % may be the effect or the level left
[9] = Toxicity in Drosophila melanogaster Oregon R-positive assessed as reduction in eclosed flies at 100 uM measured for 15 days relative to control; parameters: scale not given: the % may be the effect or the level left; conditions: 360 h, time 15 day
[10] = system: Drosophila melanogaster; experiment: Anti-alzheimer activity in ey-GAL4 driven UAS-amyloid beta (1 to 42) induced Drosophila melanogaster Oregon R-positive assessed as severe eye phenotype at 50 uM by Stereo zoom microscopic imaging analysis relative to control; format: functional
[11] = system: Drosophila melanogaster; experiment: Anti-alzheimer activity in ey-GAL4 driven UAS-amyloid beta (1 to 42) induced Drosophila melanogaster Oregon R-positive assessed as rescued eye phenotype at 100 uM by Stereo zoom microscopic imaging analysis relative to control; format: functional
[12] = system: Drosophila melanogaster; experiment: Inhibition of oxidative stress in y-GAL4 driven UAS-amyloid beta (1 to 42) induced Drosophila melanogaster Oregon R-positive assessed as reduction in ROS level at 50 uM incubated for 30 mins by H2DCFDA staining based analysis; format: functional, organism-based
[13] = system: Mus musculus; experiment: Antialzheimer activity in scopolamine-induced Swiss albino mouse model assessed as improvement in memory retention by measuring time spent in platform quadrant at 3 mg/kg, po preincubated with compound for 30 mins followed by scopolamine induction and measured after 5 days by Morris water maze test; format: functional, organism-based; conditions: time 7230.0 min
[14] = Toxicity in Drosophila melanogaster Oregon R-positive assessed as reduction in eclosed flies at 400 uM measured for 15 days relative to control; parameters: scale not given: the % may be the effect or the level left; conditions: 360 h, time 15 day
[15] = molecular target: T1, Acetylcholinesterase; experiment: Displacement of propidium iodide from human AChE PAS assessed as reduction in fluorescence intensity at 1 uM incubated for 6 hrs by fluorescence based analysis relative to control; parameters: scale not given: the % may be the effect or the level left
[16] = system: Drosophila melanogaster; experiment: Anti-alzheimer activity in ey-GAL4 driven UAS-amyloid beta (1 to 42) induced Drosophila melanogaster Oregon R-positive assessed as reduction in superoxide level at 100 uM by fluorescence based analysis; format: functional, organism-based
[17] = Toxicity in Drosophila melanogaster Oregon R-positive assessed as reduction in eclosed flies at 50 uM measured for 15 days relative to control; parameters: scale not given: the % may be the effect or the level left; conditions: 360 h, time 15 day
[18] = system: Drosophila melanogaster; experiment: Anti-alzheimer activity in ey-GAL4 driven UAS-amyloid beta (1 to 42) induced Drosophila melanogaster Oregon R-positive assessed as mild eye phenotype at 100 uM by Stereo zoom microscopic imaging analysis relative to control; format: functional
[19] = Antioxidant activity assessed as DPPH radical scavenging activity at 200 uM incubated for 30 mins relative to control; format: functional
[20] = molecular target: T1, Acetylcholinesterase; experiment: Displacement of propidium iodide from human AChE PAS assessed as reduction in fluorescence intensity at 0.01 uM incubated for 6 hrs by fluorescence based analysis relative to control; parameters: scale not given: the % may be the effect or the level left

T1 sequence (P22303 whole entry): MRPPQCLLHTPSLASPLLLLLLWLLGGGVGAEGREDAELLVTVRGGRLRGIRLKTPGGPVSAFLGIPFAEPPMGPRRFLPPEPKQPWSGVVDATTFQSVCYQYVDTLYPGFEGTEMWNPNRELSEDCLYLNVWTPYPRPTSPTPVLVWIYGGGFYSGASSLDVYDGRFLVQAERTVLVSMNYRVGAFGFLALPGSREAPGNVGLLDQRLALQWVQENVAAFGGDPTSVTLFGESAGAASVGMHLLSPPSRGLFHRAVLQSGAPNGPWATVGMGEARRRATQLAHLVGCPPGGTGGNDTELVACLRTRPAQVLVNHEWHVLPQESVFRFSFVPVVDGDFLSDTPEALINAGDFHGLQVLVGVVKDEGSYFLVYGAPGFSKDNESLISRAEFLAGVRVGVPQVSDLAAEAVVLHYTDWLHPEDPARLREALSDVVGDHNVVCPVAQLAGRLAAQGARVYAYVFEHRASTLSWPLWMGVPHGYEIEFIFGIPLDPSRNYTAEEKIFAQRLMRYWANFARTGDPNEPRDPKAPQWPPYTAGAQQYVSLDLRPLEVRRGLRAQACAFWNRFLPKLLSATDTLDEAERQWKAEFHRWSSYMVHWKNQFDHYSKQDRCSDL
Sequence of Cholinesterase (P81908 whole entry): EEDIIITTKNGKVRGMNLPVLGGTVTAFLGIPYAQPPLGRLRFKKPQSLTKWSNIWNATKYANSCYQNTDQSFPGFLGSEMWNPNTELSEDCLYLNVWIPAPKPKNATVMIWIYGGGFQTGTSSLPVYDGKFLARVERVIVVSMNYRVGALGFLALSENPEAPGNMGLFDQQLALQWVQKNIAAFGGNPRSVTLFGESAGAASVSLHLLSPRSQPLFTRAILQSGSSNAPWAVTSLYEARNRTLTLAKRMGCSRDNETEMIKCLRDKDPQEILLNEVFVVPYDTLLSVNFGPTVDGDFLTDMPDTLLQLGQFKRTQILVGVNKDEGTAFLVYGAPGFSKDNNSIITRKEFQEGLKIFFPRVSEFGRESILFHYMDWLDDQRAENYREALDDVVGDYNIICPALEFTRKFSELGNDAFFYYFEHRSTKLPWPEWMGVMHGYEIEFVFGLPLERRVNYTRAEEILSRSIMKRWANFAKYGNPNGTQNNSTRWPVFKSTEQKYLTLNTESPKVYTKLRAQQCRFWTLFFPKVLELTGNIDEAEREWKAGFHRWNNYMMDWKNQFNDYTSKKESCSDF

| Compound | IC50 [1] | IC50 [2] | Activity [3] | Activity [4] | Activity [5] | Activity [6] | Activity [7] | Activity [8] | Activity [9] | Activity [10] | Activity [11] | Activity [12] | Activity [13] | Activity [14] | Activity [15] | Activity [16] | Activity [17] | Activity [18] | Activity [19] | Activity [20] |
| --- | --- | --- | --- | --- | --- | --- | --- | --- | --- | --- | --- | --- | --- | --- | --- | --- | --- | --- | --- | --- |
| C[C@H](c1cccc(OC(=O)NCCc2c[nH]c3ccc(Cl)cc23)c1)N(C)C | 8.38 nM | 7.66 nM | – | – | – | – | – | – | – | – | – | – | – | – | – | – | – | – | – | – |
| CCN(C)C(=O)Oc1cccc([C@H](C)N(C)C)c1 [RIVASTIGMINE] | – | – | 8.74% | Active | 73% | Active | 43% | 2.96% | 95% | 23% | 33% | Active | Active | 29% | 6.3% | Active | 108% | 40% | 3.71% | 1.61% |
| Cc1ccc2[nH]cc(CCNC(=O)Oc3cccc([C@H](C)N(C)C)c3)c2c1 | 54.7 nM | 26.5 nM | – | – | – | – | – | – | – | – | – | – | – | – | – | – | – | – | – | – |
